{"source": "patent US8124129B2", "about": "“Crystalline form of the compound A-348441” (Karo Bio AB, priority 2005, dated 2012)", "type_in_all_cases": "physicochemical", "key": {"[1]": {"test": "Stability study under accelerated conditions: impurity profile / overall purity by HPLC", "conditions": "for overall purity (HPLC) after storage: 2 months; for overall purity (HPLC), initial: before storage", "method": "(§1) Impurity profile, moisture content and crystalline form were measured on the samples, and then again approximately 3 months later for Sample 1, and 2 months later for Samples 2 and 3.\nThe impurity profile was measured by HPLC."}, "[2]": {"test": "Stability study under accelerated conditions: moisture content by Karl Fischer analysis", "method": "(§2) Three samples of Compound I were packaged separately in double polyethylene bags in a small cardboard box, which were stored in a stability chamber under accelerated conditions (40° C./75% […] Humidity). Sample 1 was 10 g of crystalline Form 1; Sample 2 was 2 g of amorphous product prepared as described in Example 1B above; and Sample 3 was 2 g of crystalline Form 2 made as described in Example 1A above.\nas §1\nKarl Fischer analysis was used to measure moisture content."}, "[3]": {"test": "Solubility (general statement)"}, "[4]": {"test": "Stability study under accelerated conditions: crystalline form by differential scanning calorimetry", "conditions": "3 months, 40° C./75% Residual Humidity", "method": "as §2, §1"}, "[5]": {"conditions": "40° C./75% Residual Humidity, double polyethylene bags"}, "[6]": {"conditions": "compared with crystalline form of Example 1S of WO 2004/000869 and amorphous form, general statement"}}}
{"smiles": "CC#C[C@]1(O)CC[C@H]2[C@@H]3CCC4=CC(=O)CCC4=C3[C@@H](c3ccc(N(C)CCO[C@H]4CC[C@@]5(C)[C@@H](C4)C[C@@H](O)[C@@H]4[C@@H]5C[C@H](O)[C@]5(C)[C@@H]([C@H](C)CCC(=O)O)CC[C@@H]45)cc3)C[C@@]21C", "note": "[Sample 3, (3β,5β,7α,12α)-7,12-dihydroxy-3-{2-[{4-[17β-hydroxy-3-oxo-17α-prop-1-ynylestra-4,9-dien-11β-yl]phenyl}(methyl)amino]ethoxy}cholan-24-oic acid]", "values": [{"measurement": "overall purity (HPLC) after storage", "setting": "[1]; [5]", "result": 90.7, "unit": "%"}, {"measurement": "overall purity (HPLC), initial", "setting": "[1]", "result": 93.2, "unit": "%"}, {"measurement": "water uptake (Karl Fischer) after storage", "setting": "[2]; 2 months, 40° C./75% Residual Humidity, relative to Samples 1 and 2", "result": "intermediate behaviour"}]}
{"smiles": "CC#C[C@]1(O)CC[C@H]2[C@@H]3CCC4=CC(=O)CCC4=C3[C@@H](c3ccc(N(C)CCO[C@H]4CC[C@@]5(C)[C@@H](C4)C[C@@H](O)[C@@H]4[C@@H]5C[C@H](O)[C@]5(C)[C@@H]([C@H](C)CCC(=O)O)CC[C@@H]45)cc3)C[C@@]21C", "note": "[Sample 2, (3β,5β,7α,12α)-7,12-dihydroxy-3-{2-[{4-[17β-hydroxy-3-oxo-17α-prop-1-ynylestra-4,9-dien-11β-yl]phenyl}(methyl)amino]ethoxy}cholan-24-oic acid]", "values": [{"measurement": "overall purity (HPLC) after storage", "setting": "[1]; [5]", "result": 96.7, "unit": "%"}, {"measurement": "overall purity (HPLC), initial", "setting": "[1]", "result": 97.3, "unit": "%"}, {"measurement": "water content (Karl Fischer) after storage", "setting": "[2]; 2 months, 40° C./75% Residual Humidity", "result": 5, "unit": "%"}, {"measurement": "moisture content, initial", "setting": "[2]; before storage", "result": "anhydrous"}]}
{"smiles": "CC#C[C@]1(O)CC[C@H]2[C@@H]3CCC4=CC(=O)CCC4=C3[C@@H](c3ccc(N(C)CCO[C@H]4CC[C@@]5(C)[C@@H](C4)C[C@@H](O)[C@@H]4[C@@H]5C[C@H](O)[C@]5(C)[C@@H]([C@H](C)CCC(=O)O)CC[C@@H]45)cc3)C[C@@]21C", "note": "[Sample 1, (3β,5β,7α,12α)-7,12-dihydroxy-3-{2-[{4-[17β-hydroxy-3-oxo-17α-prop-1-ynylestra-4,9-dien-11β-yl]phenyl}(methyl)amino]ethoxy}cholan-24-oic acid]", "values": [{"measurement": "solubility", "setting": "[3]", "result": "low solubility"}, {"measurement": "change in crystalline form (DSC thermograms)", "setting": "[4]", "result": "no change in crystalline form"}, {"measurement": "change of overall purity (HPLC) after storage", "setting": "[1]; 3 months, 40° C./75% Residual Humidity, double polyethylene bags", "result": "did not change"}, {"measurement": "stability under accelerated conditions, overall conclusion", "setting": "[1]; compared with Compound I in other forms", "result": "more stable"}, {"measurement": "stability", "setting": "[1]; [6]", "result": "improved stability"}, {"measurement": "water uptake (Karl Fischer) after storage", "setting": "[2]; 3 months, 40° C./75% Residual Humidity", "result": "little water uptake"}, {"measurement": "hygroscopicity", "setting": "[2]; [6]", "result": "lower hygroscopicity"}]}
